Experimental data from patent US20070128217A1 (priority 2003, published 2007).

Assays:
[1] = tested on: rabbit serum obtained by immunizing a rabbit with the SARS-CoV strain Frankfurt 1; type: binding; design: Binding of a rabbit serum to linear peptides / Binding of a rabbit serum to looped peptides / Rabbit serum linear peptides / Rabbit serum looped peptides / Binding of a rabbit serum to linear peptides of protein N of SARS-CoV Urbani (Rabbit serum linear peptides) / Binding of a rabbit serum to looped/cyclic peptides of protein N of SARS-CoV Urbani (Rabbit serum looped peptides): unit not given here
[2] = tested on: antibodies in sera from SARS patients (sera 1a, 1b, 2, 6, 37, 62, London, SARS-yellow, SARS-green); type: binding, human; design: Binding of serum 6 to linear peptides of protein X1 of SARS-CoV Urbani / Binding of serum 37 to linear peptides of protein X1 of SARS-CoV Urbani / Binding of serum 6 to looped/cyclic peptide (PEPSCAN-ELISA) / Binding of serum 37 to looped/cyclic peptide (PEPSCAN-ELISA) / Binding of serum 37 to looped/cyclic peptides of protein X1 of SARS-CoV Urbani / Binding of serum 6 to linear peptides of protein X2 / Binding of serum 37 to linear peptides of protein X2 / Binding of serum 37 to looped/cyclic peptides of protein X2 of SARS-CoV Urbani / Binding of serum 6 to linear peptides of protein M of SARS-CoV Urbani / Binding of serum 37 to linear peptides of protein M of SARS-CoV Urbani / Binding of serum 6 to looped/cyclic peptides of protein M of SARS-CoV Urbani / Binding of serum 37 to looped/cyclic peptides of protein M of SARS-CoV Urbani / Binding of serum 6 to linear peptides of protein X3 of SARS-CoV Urbani / Binding of serum 37 to linear peptides of protein X3 of SARS-CoV Urbani / Binding of serum 37 to looped/cyclic peptides of protein X3 of SARS-CoV Urbani / Binding of serum 6 to linear peptides of protein X4 of SARS-CoV Urbani / Binding of serum 37 to linear peptides of protein X4 of SARS-CoV Urbani / Binding of serum 37 to looped/cyclic peptides of protein X4 of SARS-CoV Urbani / Binding of serum 6 to linear peptides of protein X5 of SARS-CoV Urbani / Binding of serum 37 to linear peptides of protein X5 of SARS-CoV Urbani / Binding of serum 37 to looped/cyclic peptides of protein X5 of SARS-CoV Urbani / Binding of serum 6 to linear peptides of protein N of SARS-CoV Urbani / Binding of serum 37 to linear peptides of protein N of SARS-CoV Urbani / Binding of serum 6 to linear peptide (PEPSCAN-ELISA) / Binding of serum 1a to looped/cyclic peptides of protein N of SARS-CoV Urbani / Binding of serum 1b to looped/cyclic peptides of protein N of SARS-CoV Urbani / Binding of serum 2 to looped/cyclic peptides of protein N of SARS-CoV Urbani / Binding of serum 6 to looped/cyclic peptides of protein N of SARS-CoV Urbani / Binding of serum 37 to looped/cyclic peptides of protein N of SARS-CoV Urbani / Binding of serum 62 to looped/cyclic peptides of protein N of SARS-CoV Urbani / Binding of serum London to looped/cyclic peptides of protein N of SARS-CoV Urbani / Binding of serum SARS-green to looped/cyclic peptides of protein N of SARS-CoV Urbani: unit not given here
[3] = tested on: control sera (pooled serum of ten healthy LUMC hospital workers; commercial negative donor pooled serum from the Dutch bloodbank); type: binding, human; design: Binding of Control serum LUMC to linear peptides / Binding of Control serum Blood-bank to linear peptides / Binding of Control serum LUMC to looped peptides / Binding of Control Serum Blood-Bank to Looped peptides / Binding of Control serum LUMC to linear peptides of the protein M of SARS-CoV Urbani / Binding of Control serum Blood-bank to linear peptides of the protein M of SARS-CoV Urbani / Binding of Control serum LUMC to looped peptides of the protein M of SARS-CoV Urbani / Binding of Control Serum Blood-Bank to Looped peptides of the protein M of SARS-CoV Urbani: unit not given here

## KDLPKEITVATSRTL
[1]
  Rabbit serum linear peptides: 0.2
  Rabbit serum looped peptides: 0.3
[2]
  Binding of serum 1a to linear peptides of protein M of SARS-CoV Urbani: 0.7
  Binding of serum 1a to looped/cyclic peptides of protein M of SARS-CoV Urbani: 0.6
  Binding of serum 1b to linear peptides of protein M of SARS-CoV Urbani: 0.6
  Binding of serum 1b to looped/cyclic peptides of protein M of SARS-CoV Urbani: 0.6
  Binding of serum 2 to linear peptides of protein M of SARS-CoV Urbani: 0.6
  Binding of serum 2 to looped/cyclic peptides of protein M of SARS-CoV Urbani: 0.7
  Binding of serum 6 to linear peptides of protein M of SARS-CoV Urbani: 0.5
  Binding of serum 6 to looped/cyclic peptides of protein M of SARS-CoV Urbani: 1.1
  Binding of serum 37 to linear peptides of protein M of SARS-CoV Urbani: 0.5
  Binding of serum 37 to looped/cyclic peptides of protein M of SARS-CoV Urbani: 0.6
  Binding of serum 62 to linear peptides of protein M of SARS-CoV Urbani: 0.5
  Binding of serum 62 to looped/cyclic peptides of protein M of SARS-CoV Urbani: 0.6
  Binding of serum London to linear peptides of protein M of SARS-CoV Urbani: 0.3
  Binding of serum London to looped/cyclic peptides of protein M of SARS-CoV Urbani: 1.1
  Binding of serum SARS-green to linear peptides of protein M of SARS-CoV Urbani: 0.5
  Binding of serum SARS-green to looped/cyclic peptides of protein M of SARS-CoV Urbani: 0.3
  Binding of serum SARS-yellow to linear peptides of protein M of SARS-CoV Urbani: 0.2
  Binding of serum SARS-yellow to looped/cyclic peptides of protein M of SARS-CoV Urbani: 0.9
[3]
  Binding of Control Serum Blood-Bank to Looped peptides of the protein M of SARS-CoV Urbani: 0.6
  Binding of Control serum Blood-bank to linear peptides of the protein M of SARS-CoV Urbani: 0.7
  Binding of Control serum LUMC to linear peptides of the protein M of SARS-CoV Urbani: 0.6
  Binding of Control serum LUMC to looped peptides of the protein M of SARS-CoV Urbani: 0.8

## KEITVATSRTLSYYK
[1]
  Rabbit serum linear peptides: 0.4
  Rabbit serum looped peptides: 0.5
[2]
  Binding of serum 1a to linear peptides of protein M of SARS-CoV Urbani: 0.7
  Binding of serum 1a to looped/cyclic peptides of protein M of SARS-CoV Urbani: 0.6
  Binding of serum 1b to linear peptides of protein M of SARS-CoV Urbani: 0.6
  Binding of serum 1b to looped/cyclic peptides of protein M of SARS-CoV Urbani: 0.5
  Binding of serum 2 to linear peptides of protein M of SARS-CoV Urbani: 0.6
  Binding of serum 2 to looped/cyclic peptides of protein M of SARS-CoV Urbani: 0.8
  Binding of serum 6 to linear peptides of protein M of SARS-CoV Urbani: 0.0
  Binding of serum 6 to looped/cyclic peptides of protein M of SARS-CoV Urbani: 1.3
  Binding of serum 37 to linear peptides of protein M of SARS-CoV Urbani: 0.5
  Binding of serum 37 to looped/cyclic peptides of protein M of SARS-CoV Urbani: 0.6
  Binding of serum 62 to linear peptides of protein M of SARS-CoV Urbani: 0.6
  Binding of serum 62 to looped/cyclic peptides of protein M of SARS-CoV Urbani: 0.5
  Binding of serum London to linear peptides of protein M of SARS-CoV Urbani: 0.3
  Binding of serum London to looped/cyclic peptides of protein M of SARS-CoV Urbani: 0.4
  Binding of serum SARS-green to linear peptides of protein M of SARS-CoV Urbani: 0.4
  Binding of serum SARS-green to looped/cyclic peptides of protein M of SARS-CoV Urbani: 0.2
  Binding of serum SARS-yellow to linear peptides of protein M of SARS-CoV Urbani: 0.2
  Binding of serum SARS-yellow to looped/cyclic peptides of protein M of SARS-CoV Urbani: 0.5
[3]
  Binding of Control Serum Blood-Bank to Looped peptides of the protein M of SARS-CoV Urbani: 0.7
  Binding of Control serum Blood-bank to linear peptides of the protein M of SARS-CoV Urbani: 0.8
  Binding of Control serum LUMC to linear peptides of the protein M of SARS-CoV Urbani: 0.6
  Binding of Control serum LUMC to looped peptides of the protein M of SARS-CoV Urbani: 0.7

## KEPCPSGTYEGNSPF
[1]
  Rabbit serum linear peptides: 0.4
  Rabbit serum looped peptides: 0.3
[2]
  Binding of serum 1a to linear peptides of protein X4 of SARS-CoV Urbani: 0.7
  Binding of serum 1a to looped/cyclic peptides of protein X4 of SARS-CoV Urbani: 0.8
  Binding of serum 1b to linear peptides of protein X4 of SARS-CoV Urbani: 0.6
  Binding of serum 1b to looped/cyclic peptides of protein X4 of SARS-CoV Urbani: 0.6
  Binding of serum 2 to linear peptides of protein X4 of SARS-CoV Urbani: 0.4
  Binding of serum 2 to looped/cyclic peptides of protein X4 of SARS-CoV Urbani: 0.6
  Binding of serum 6 to linear peptides of protein X4 of SARS-CoV Urbani: 0.4
  Binding of serum 6 to looped/cyclic peptides of protein X4 of SARS-CoV Urbani: 0.6
  Binding of serum 37 to linear peptides of protein X4 of SARS-CoV Urbani: 0.7
  Binding of serum 37 to looped/cyclic peptides of protein X4 of SARS-CoV Urbani: 0.7
  Binding of serum 62 to linear peptides of protein X4 of SARS-CoV Urbani: 0.8
  Binding of serum 62 to looped/cyclic peptides of protein X4 of SARS-CoV Urbani: 0.6
  Binding of serum London to linear peptides of protein X4 of SARS-CoV Urbani: 0.8
  Binding of serum London to looped/cyclic peptides of protein X4 of SARS-CoV Urbani: 0.3
  Binding of serum SARS-green to linear peptides of protein X4 of SARS-CoV Urbani: 0.6
  Binding of serum SARS-green to looped/cyclic peptides of protein X4 of SARS-CoV Urbani: 0.4
  Binding of serum SARS-yellow to linear peptides of protein X4 of SARS-CoV Urbani: 0.7
  Binding of serum SARS-yellow to looped/cyclic peptides of protein X4 of SARS-CoV Urbani: 0.3
[3]
  Binding of Control Serum Blood-Bank to Looped peptides: 0.5
  Binding of Control serum Blood-bank to linear peptides: 0.6
  Binding of Control serum LUMC to linear peptides: 0.6
  Binding of Control serum LUMC to looped peptides: 0.8
